The record followed here is BindingDB's records for doi:10.1016/0167-0115(94)90537-1 (Universit&Eacute, 1994).

pKi: −log10 of the molar value. Square brackets hold non-standard residues; d marks the D form. Peptide text beside a SMILES is read from it. ξ: configuration not given here. Ile(3ξ) = CCC(C)[C@H](N)C(=O)O

In the test the target is T1, VIP peptides (Rattus norvegicus, UniProt P01283).
T1 sequence (P01283 whole entry): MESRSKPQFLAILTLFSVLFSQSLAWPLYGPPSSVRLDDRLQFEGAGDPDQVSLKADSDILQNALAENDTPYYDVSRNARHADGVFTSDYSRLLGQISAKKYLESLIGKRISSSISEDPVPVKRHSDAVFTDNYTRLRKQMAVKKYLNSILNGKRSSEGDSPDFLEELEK
The molecule `CC[C@H](C)[C@H](NC(=O)[C@H](CO)NC(=O)[C@H](CC(N)=O)NC(=O)[C@H](CC(C)C)NC(=O)[C@H](Cc1ccc(O)cc1)NC(=O)[C@H](CCCCN)NC(=O)[C@H](CCCCN)NC(=O)[C@@H](NC(=O)[C@H](C)NC(=O)[C@H](CCSC)NC(=O)[C@H](CCC(N)=O)NC(=O)[C@H](CCCCN)NC(=O)[C@H](CCCN=C(N)N)NC(=O)[C@H](CC(C)C)NC(=O)[C@H](CCCN=C(N)N)NC(=O)[C@@H](NC(=O)[C@H](Cc1ccc(O)cc1)NC(=O)[C@H](CC(N)=O)NC(=O)[C@H](CC(=O)O)NC(=O)[C@@H](NC(=O)[C@H](Cc1ccccc1)NC(=O)[C@@H](NC(=O)[C@H](C)NC(=O)[C@H](CC(=O)O)NC(=O)[C@H](CO)NC(=O)[C@H](Cc1cnc[nH]1)NC(C)=O)C(C)C)[C@@H](C)O)[C@@H](C)O)C(C)C)C(=O)N[C@@H](CC(C)C)C(=O)N[C@@H](CC(N)=O)C(N)=O` [Acetyl-His1-VIP] had a pKi of 7.82. As for `CC[C@H](C)[C@H](NC(=O)CNC(=O)[C@H](CCC(=O)O)NC(=O)[C@H](CO)NC(=O)[C@@H](N)Cc1cnc[nH]1)C(=O)N[C@@H](Cc1ccccc1)C(=O)N[C@H](C(=O)N[C@@H](CC(=O)O)C(=O)N[C@@H](CO)C(=O)N[C@@H](Cc1ccc(O)cc1)C(=O)N[C@@H](CO)C(=O)N[C@@H](CCCNC(=N)N)C(=O)N[C@@H](Cc1ccc(O)cc1)C(=O)N[C@@H](CCCNC(=N)N)C(=O)N[C@@H](CCCCN)C(=O)N[C@@H](CCC(N)=O)C(=O)N[C@@H](CCSC)C(=O)N[C@@H](C)C(=O)N[C@H](C(=O)N[C@@H](CCCCN)C(=O)N[C@@H](CCCCN)C(=O)N[C@@H](Cc1ccc(O)cc1)C(=O)N[C@@H](CC(C)C)C(=O)N[C@@H](C)C(=O)N[C@@H](C)C(=O)N[C@H](C(=O)N[C@@H](CC(C)C)C(N)=O)C(C)C)C(C)C)[C@@H](C)O` [PACAP(1-27)], the figure is 8.70; as for `CC[C@H](C)[C@H](NC(=O)CNC(=O)[C@H](CC(=O)O)NC(=O)[C@H](CO)NC(=O)[C@@H](N)Cc1ccccc1)C(=O)N[C@@H](Cc1ccccc1)C(=O)N[C@H](C(=O)N[C@@H](CC(=O)O)C(=O)N[C@@H](CO)C(=O)N[C@@H](Cc1ccc(O)cc1)C(=O)N[C@@H](CO)C(=O)N[C@@H](CCCN=C(N)N)C(=O)N[C@@H](Cc1ccc(O)cc1)C(=O)N[C@@H](CCCN=C(N)N)C(=O)N[C@@H](CCCCN)C(=O)N[C@@H](CCC(N)=O)C(=O)N[C@@H](CCSC)C(=O)N[C@@H](C)C(=O)N[C@H](C(=O)N[C@@H](CCCCN)C(=O)N[C@@H](CCCCN)C(=O)N[C@@H](Cc1ccc(O)cc1)C(=O)N[C@@H](CC(C)C)C(=O)N[C@@H](C)C(=O)N[C@@H](C)C(=O)N[C@H](C(=O)N[C@@H](CC(C)C)C(N)=O)C(C)C)C(C)C)[C@@H](C)O` [[Phe1]PACAP(1-27)], 6.52. Under `CC[C@H](C)[C@H](NC(=O)CNC(=O)[C@H](CC(=O)O)NC(=O)[C@H](CO)NC(=O)[C@@H](N)Cc1cnc[nH]1)C(=O)N[C@@H](Cc1ccccc1)C(=O)N[C@H](C(=O)N[C@@H](CC(=O)O)C(=O)N[C@@H](CO)C(=O)N[C@@H](Cc1ccc(O)cc1)C(=O)N[C@@H](CO)C(=O)N[C@@H](CCCNC(=N)N)C(=O)N[C@@H](Cc1ccc(O)cc1)C(=O)N[C@@H](CCCNC(=N)N)C(=O)N[C@@H](CCCCN)C(=O)N[C@@H](CCC(N)=O)C(=O)N[C@@H](CCSC)C(=O)N[C@@H](C)C(=O)N[C@H](C(=O)N[C@@H](CCCCN)C(=O)N[C@@H](CCCCN)C(=O)N[C@@H](Cc1ccc(O)cc1)C(=O)N[C@@H](CC(C)C)C(=O)N[C@@H](C)C(=O)N[C@@H](C)C(=O)N[C@H](C(=O)N[C@@H](CC(C)C)C(=O)NCC(=O)N[C@@H](CCCCN)C(=O)N[C@@H](CCCNC(=N)N)C(=O)N[C@@H](Cc1ccc(O)cc1)C(=O)N[C@@H](CCCCN)C(=O)N[C@@H](CCC(N)=O)C(=O)N[C@@H](CCCNC(=N)N)C(=O)N[C@H](C(=O)N[C@@H](CCCCN)C(=O)N[C@@H](CC(N)=O)C(=O)N[C@@H](CCCCN)C(N)=O)C(C)C)C(C)C)C(C)C)[C@@H](C)O` [PACAP] stands 8.70; under `CC[C@H](C)[C@H](NC(=O)[C@H](C)NC(=O)[C@H](CC(=O)O)NC(=O)[C@H](CO)NC(=O)[C@@H](N)Cc1cnc[nH]1)C(=O)N[C@@H](Cc1ccccc1)C(=O)N[C@H](C(=O)N[C@@H](CCC(N)=O)C(=O)N[C@@H](CCC(N)=O)C(=O)N[C@@H](Cc1ccc(O)cc1)C(=O)N[C@@H](CO)C(=O)N[C@@H](CCCCN)C(=O)N[C@@H](CC(C)C)C(=O)N[C@@H](CC(C)C)C(=O)N[C@@H](C)C(=O)N[C@@H](CCCCN)C(=O)N[C@@H](CC(C)C)C(=O)N[C@@H](C)C(=O)N[C@@H](CC(C)C)C(=O)N[C@@H](CCC(N)=O)C(=O)N[C@@H](CCCCN)C(=O)N[C@@H](Cc1ccc(O)cc1)C(=O)N[C@@H](CC(C)C)C(=O)N[C@@H](C)C(=O)N[C@@H](CO)C(=O)N[C@H](C(=O)N[C@@H](CC(C)C)C(=O)NCC(=O)N[C@@H](CO)C(=O)N[C@@H](CCCNC(=N)N)C(=O)N[C@H](C(=O)N[C@@H](CO)C(=O)N1CCC[C@H]1C(=O)N1CCC[C@H]1C(=O)N1CCC[C@H]1C(N)=O)[C@@H](C)O)[C@@H](C)CC)[C@@H](C)O` [CAS_89468-62-2] (H-HSDAIFTQQYSKLLAKLALQKYLASILGSRTSPPP-NH2), 7.52. With `CCC(C)[C@H](NC(=O)CNC(=O)[C@@H](N)CC(=O)O)C(=O)N[C@@H](Cc1ccccc1)C(=O)N[C@H](C(=O)N[C@@H](CC(=O)O)C(=O)N[C@@H](CO)C(=O)N[C@@H](Cc1ccc(O)cc1)C(=O)N[C@@H](CO)C(=O)N[C@@H](CCCN=C(N)N)C(=O)N[C@@H](Cc1ccc(O)cc1)C(=O)N[C@@H](CCCN=C(N)N)C(=O)N[C@@H](CCCCN)C(=O)N[C@@H](CCC(N)=O)C(=O)N[C@@H](CCSC)C(=O)N[C@@H](C)C(=O)N[C@H](C(=O)N[C@@H](CCCCN)C(=O)N[C@@H](CCCCN)C(=O)N[C@@H](Cc1ccc(O)cc1)C(=O)N[C@@H](CC(C)C)C(=O)N[C@@H](C)C(=O)N[C@@H](C)C(=O)N[C@H](C(=O)N[C@@H](CC(C)C)C(N)=O)C(C)C)C(C)C)[C@@H](C)O` (stereo not given in full) [PACAP(3-27)] (H-DG[Ile(3ξ)]FTDSYSRYRKQMAVKKYLAAVL-NH2), the pKi is 5.70. In turn, `CC[C@H](C)[C@H](NC(=O)[C@H](CO)NC(=O)[C@H](CC(N)=O)NC(=O)[C@H](CC(C)C)NC(=O)[C@H](Cc1ccc(O)cc1)NC(=O)[C@H](CCCCN)NC(=O)[C@H](CCCCN)NC(=O)[C@@H](NC(=O)[C@H](C)NC(=O)[C@H](CCSC)NC(=O)[C@H](CCC(N)=O)NC(=O)[C@H](CCCCN)NC(=O)[C@H](CCCN=C(N)N)NC(=O)[C@H](CC(C)C)NC(=O)[C@H](CCCN=C(N)N)NC(=O)[C@@H](NC(=O)[C@H](Cc1ccc(O)cc1)NC(=O)[C@H](CC(N)=O)NC(=O)[C@H](CC(=O)O)NC(=O)[C@@H](NC(=O)[C@H](Cc1ccccc1)NC(=O)[C@@H](NC(=O)[C@H](C)NC(=O)[C@H](CC(=O)O)NC(=O)[C@H](CO)NC(=O)[C@H](N)Cc1cnc[nH]1)C(C)C)[C@@H](C)O)[C@@H](C)O)C(C)C)C(=O)N[C@@H](CC(C)C)C(=O)N[C@@H](CC(N)=O)C(N)=O` [VIP [D-His1]] had a pKi of 6.70. Regarding `CC[C@H](C)[C@H](NC(=O)[C@H](CO)NC(=O)[C@H](CC(N)=O)NC(=O)[C@H](CC(C)C)NC(=O)[C@H](Cc1ccc(O)cc1)NC(=O)[C@H](CCCCN)NC(=O)[C@H](CCCCN)NC(=O)[C@@H](NC(=O)[C@H](C)NC(=O)[C@H](CCSC)NC(=O)[C@H](CCC(N)=O)NC(=O)[C@H](CCCCN)NC(=O)[C@H](CCCN=C(N)N)NC(=O)[C@H](CC(C)C)NC(=O)[C@H](CCCN=C(N)N)NC(=O)[C@@H](NC(=O)[C@H](Cc1ccc(O)cc1)NC(=O)[C@H](CC(N)=O)NC(=O)[C@H](CC(=O)O)NC(=O)[C@@H](NC(=O)[C@H](Cc1ccccc1)NC(=O)[C@@H](NC(=O)[C@H](C)NC(=O)[C@H](CC(=O)O)NC(=O)[C@@H](N)CO)C(C)C)[C@@H](C)O)[C@@H](C)O)C(C)C)C(=O)N[C@@H](CC(C)C)C(=O)N[C@@H](CC(N)=O)C(N)=O` [VIP(2-28)] (H-SDAVFTDNYTRLRKQMAVKKYLNSILN-NH2), the pKi was 6.70. Under `[C][C][C]([C])[C@H]([N]C(=O)[C][N]C(=O)[C@H]([C][C]C([O])=O)[N]C(=O)[C@@H]([N])[C][O])C(=O)[N][C@@H]([C]c1ccccc1)C(=O)[N][C@H](C(=O)[N][C@@H]([C]C([O])=O)C(=O)[N][C@@H]([C][O])C(=O)[N][C@@H]([C]c1ccc([O])cc1)C(=O)[N][C@@H]([C][O])C(=O)[N][C@@H]([C][C][C]N=C([N])[N])C(=O)[N][C@@H]([C]c1ccc([O])cc1)C(=O)[N][C@@H]([C][C][C]N=C([N])[N])C(=O)[N][C@@H]([C][C][C][C][N])C(=O)[N][C@@H]([C][C]C([N])=O)C(=O)[N][C@@H]([C][C]S[C])C(=O)[N][C@@H]([C])C(=O)[N][C@@H]([C]([C])[C])C(=O)[N][C@@H]([C][C][C][C][N])C(=O)[N][C@@H]([C][C][C][C][N])C(=O)[N][C@@H]([C]c1ccc([O])cc1)C(=O)[N][C@@H]([C][C]([C])[C])C(=O)[N][C@@H]([C])C(=O)[N][C@@H]([C])C(=O)[N][C@@H]([C]([C])[C])C(=O)[N][C@@H]([C][C]([C])[C])C([N])=O)[C@@H]([C])[O]` [PACAP(2-27)] stands 7.52; under `CC[C@H](C)[C@H](NC(=O)[C@H](CO)NC(=O)[C@H](CC(N)=O)NC(=O)[C@H](CC(C)C)NC(=O)[C@H](Cc1ccc(O)cc1)NC(=O)[C@H](CCCCN)NC(=O)[C@H](CCCCN)NC(=O)[C@@H](NC(=O)[C@H](C)NC(=O)[C@H](CCSC)NC(=O)[C@H](CCC(N)=O)NC(=O)[C@H](CCCCN)NC(=O)[C@H](CCCN=C(N)N)NC(=O)[C@H](CC(C)C)NC(=O)[C@H](CCCN=C(N)N)NC(=O)[C@@H](NC(=O)[C@H](Cc1ccc(O)cc1)NC(=O)[C@H](CC(N)=O)NC(=O)[C@H](CC(=O)O)NC(=O)[C@@H](NC(=O)[C@H](Cc1ccccc1)NC(=O)[C@@H](NC(=O)[C@H](C)NC(=O)[C@H](CC(=O)O)NC(=O)[C@H](CO)NC(=O)[C@@H](N)Cc1ccccc1)C(C)C)[C@@H](C)O)[C@@H](C)O)C(C)C)C(=O)N[C@@H](CC(C)C)C(=O)N[C@@H](CC(N)=O)C(N)=O` [[Phe1]VIP] (H-FSDAVFTDNYTRLRKQMAVKKYLNSILN-NH2), 7.52.

By pKi is commonly meant −log10 of the Ki, conventionally taken in molar units. A higher pKi goes with a low Ki.
